Data set [1] addresses T1, STAT5a (Homo sapiens, UniProt P42229).
T1 sequence (P42229 1-794): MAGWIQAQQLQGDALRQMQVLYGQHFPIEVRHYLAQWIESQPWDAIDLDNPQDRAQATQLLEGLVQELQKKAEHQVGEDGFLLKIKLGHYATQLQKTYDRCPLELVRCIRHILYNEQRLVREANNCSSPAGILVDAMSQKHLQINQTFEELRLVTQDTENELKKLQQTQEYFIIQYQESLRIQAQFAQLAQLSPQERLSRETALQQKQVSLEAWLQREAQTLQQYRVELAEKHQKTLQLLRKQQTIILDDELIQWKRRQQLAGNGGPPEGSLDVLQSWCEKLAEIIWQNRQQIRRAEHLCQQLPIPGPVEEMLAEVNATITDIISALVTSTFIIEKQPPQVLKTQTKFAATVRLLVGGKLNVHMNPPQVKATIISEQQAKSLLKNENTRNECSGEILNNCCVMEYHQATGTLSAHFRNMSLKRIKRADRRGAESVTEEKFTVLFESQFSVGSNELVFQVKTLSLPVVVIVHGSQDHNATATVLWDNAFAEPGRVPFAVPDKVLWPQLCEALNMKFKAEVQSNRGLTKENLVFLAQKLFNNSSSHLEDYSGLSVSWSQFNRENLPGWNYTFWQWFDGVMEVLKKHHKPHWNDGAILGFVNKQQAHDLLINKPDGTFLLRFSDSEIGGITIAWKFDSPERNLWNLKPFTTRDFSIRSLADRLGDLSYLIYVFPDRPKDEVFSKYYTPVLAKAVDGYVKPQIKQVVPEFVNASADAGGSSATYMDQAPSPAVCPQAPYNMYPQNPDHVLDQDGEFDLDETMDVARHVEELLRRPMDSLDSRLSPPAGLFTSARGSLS
In words: Fluorescence polarization (FP) binding assay, STAT5a. The procedure: (§1) Table S1: Activities of test compounds against STAT5a and STAT5b in FP assays . Experiments were carried out in triplicate (n = 3) unless stated otherwise. n/a: not applicable.
(§2) [a]data taken from the literature.[1]
(§3) Ki values were calculated from IC50 values using the published equation.[2] […]
(§4) Table S2: Activities of 12 against STAT5 proteins in FP assays.
(§5) Fluorescence polarization assays
(§6) Fluorescence polarization assays were essentially carried out as previously described.[1] These assays quantitate to which extent a test compound is able to interfere with binding between a STAT protein and a fluorescein-labeled phosphotyrosine-containing peptide, which is known to bind to the SH2 domain of the respective STAT protein. The following protein […]
(§7) concentrations were used: 100 nM for STAT1, 150 nM for STAT3, 30 nM for STAT4, 180 nM for STAT5a, 90 nM for STAT5b and 105 nM for STAT6. All peptides were used at a concentration of 10 nM. The following peptides were used: 5 -carboxyfluorescein -GpYDKPHVL for STAT1; 5-carboxyfluorescein -GpYLPQTV-NH2 for STAT3; 5-carboxyfluorescein-GpYLPQNID-OH for STAT4; 5-carboxyfluorescein-GpYLVLDKW for STAT5a/b, and 5-carboxyfluorescein-GpYVPWQDLI-OH for STAT6. As a buffer system, 10 mM Tris (pH 8.0), 50 mM NaCl, 1 mM EDTA, 1 mM DTT, 0.1 % Nonidet P-40 substitute, and 2 % DMSO in water was used. All compounds tested were incubated for 1 h with the protein. Subsequently, the fluorescein-labeled peptide was added and the fluorescence polarization was measured with an Infinite F500 plate reader (Tecan) after another hour. IC50 values were converted to Ki-values using the published equation.[2]
In general terms: Polarisation of emitted light reports the rotation of a fluorescent probe.

The target in data set [2] is T2, STAT5b (Homo sapiens, UniProt P51692).
T2 sequence (P51692 1-787): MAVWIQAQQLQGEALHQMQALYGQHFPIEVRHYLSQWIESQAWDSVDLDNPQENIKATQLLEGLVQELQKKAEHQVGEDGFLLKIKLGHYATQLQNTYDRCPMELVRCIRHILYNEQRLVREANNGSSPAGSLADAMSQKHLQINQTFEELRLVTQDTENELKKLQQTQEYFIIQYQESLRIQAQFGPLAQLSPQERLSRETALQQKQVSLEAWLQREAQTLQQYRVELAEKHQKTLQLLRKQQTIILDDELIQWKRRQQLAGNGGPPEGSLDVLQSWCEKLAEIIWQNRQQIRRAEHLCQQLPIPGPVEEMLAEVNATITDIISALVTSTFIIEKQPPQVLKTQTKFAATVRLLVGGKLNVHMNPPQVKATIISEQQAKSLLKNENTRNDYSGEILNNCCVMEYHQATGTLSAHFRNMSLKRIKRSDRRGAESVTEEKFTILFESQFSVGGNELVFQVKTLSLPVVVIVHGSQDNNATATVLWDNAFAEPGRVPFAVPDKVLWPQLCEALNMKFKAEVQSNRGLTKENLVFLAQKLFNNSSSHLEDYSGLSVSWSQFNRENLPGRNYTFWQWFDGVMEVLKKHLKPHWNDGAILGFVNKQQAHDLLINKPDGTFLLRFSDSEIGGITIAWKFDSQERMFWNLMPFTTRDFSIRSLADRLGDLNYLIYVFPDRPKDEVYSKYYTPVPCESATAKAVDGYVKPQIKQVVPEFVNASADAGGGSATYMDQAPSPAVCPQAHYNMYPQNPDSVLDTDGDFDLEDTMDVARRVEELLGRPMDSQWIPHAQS
In words: Fluorescence polarization (FP) binding assay, STAT5b. The settings on record: for inhibition at 200 µM: read-out: STAT5b inhibition at 200 μM. The procedure: as §1, §2, §3, §4, §5, §6, §7

The target in data set [3] is T1, STAT5a. As to conditions: cited from earlier work.

SMILES strings stand for the structures.

The term IC50 denotes the concentration at which inhibition is half-maximal. Read a high IC50 as weaker potency in that assay. For orientation: Ki means the equilibrium dissociation constant of an inhibitor or competing ligand from its target. What is called melting point is the temperature of the solid-liquid transition. As for `CCOC(=O)c1ccc(-c2cc(OP(=O)(O)O)cc(-c3cc(OC)c(OC)c(OC)c3)c2)cc1` [6 g], the melting point was 150 °C. In data set [1], this compound gave an IC50 of 91.2 ± 5.5 µM and a Ki of 45.2 ± 2.7 µM. In data set [2], the 50% inhibitory concentration (IC50) came out at 125 ± 3.7 µM and the Ki was 61.3 ± 1.8 µM.
As usually defined, the inhibition is the change of the read-out against control, counted positive when it falls. Consider `COc1cc(-c2cc(OP(=O)(O)O)cc(-c3ccc(F)cc3)c2)cc(OC)c1OC` [6 d], for which the melting point was determined as 165 °C. In data set [1], this compound had an IC50 of 66.5 ± 5 µM and a Ki of 33 ± 2.5 µM. Further, the inhibition at 200 µM in data set [2] turned out to be 51 ± 4%.
`COc1cc(-c2cc(OP(=O)(O)O)cc(-c3ccc(Cl)c(F)c3)c2)cc(OC)c1OC` [6 e] returned a melting point of 127 °C. In data set [1], this compound showed an IC50 of 34.7 ± 4.4 µM and an inhibition constant Ki of 17.1 ± 2.2 µM. For the same compound, in data set [2], the IC50 stood at 104 ± 9.5 µM and the Ki is 51.2 ± 4.7 µM.
Consider `COc1cc(-c2cc(OP(=O)(O)O)cc(-c3ccc(C(N)=O)cc3)c2)cc(OC)c1OC` [6 f], for which, in data set [1], the IC50 worked out at 68.9 ± 4.9 µM and the affinity, expressed as Ki, was 34.1 ± 2.4 µM. The inhibition at 200 µM in data set [2] was determined as 21 ± 6%.
In data set [1], `COc1cc(-c2cc(OP(=O)(O)O)cc(-c3cc(Cl)c(Cl)c(Cl)c3)c2)cc(OC)c1OC` [6 a] showed a half-maximal inhibitory concentration (IC50) of 21.8 ± 0.9 µM and a Ki of 10.2 ± 0.4 µM. In data set [2], this compound returned an IC50 of 47 ± 2.6 µM and a Ki of 23.1 ± 1.3 µM.
Regarding `COc1cc(-c2cc(OP(=O)(O)O)cc(-c3ccc(C(=O)O)cc3)c2)cc(OC)c1OC` [6 h], the melting point came out at 152 °C. In data set [1], this compound showed an IC50 of 36.8 ± 2.2 µM and a Ki of 18.2 ± 1.1 µM. Also, the inhibition at 200 µM in data set [2] was 50 ± 2%.
As for `COc1cc(-c2cc(OP(=O)(O)O)cc(-c3cc(OC)c(OC)c(OC)c3)c2)cc(OC)c1OC` [compound 1], the “selectivity for STAT5a over STAT5b” value in data set [3] is listed as “at least 9 fold”.
`COc1cc(-c2cc(OP(=O)(O)O)cc(-c3ccc(C(C)C)cc3)c2)cc(OC)c1OC` [6 i]: the melting point is 182 °C. For the same compound, in data set [1], the IC50 was determined as 48.5 ± 4.8 µM and the affinity corresponds to a Ki of 24 ± 2.4 µM. Besides, in data set [2], the half-inhibitory concentration (IC50) worked out at 51.8 ± 5.1 µM and the affinity, expressed as Ki, was 25.5 ± 2.5 µM.
For the compound `COc1cc(-c2cc(OP(=O)(O)O)cc(-c3ccc(Cl)cc3)c2)cc(OC)c1OC` [6 c], the melting point was found to be 129 °C. In data set [1], this compound showed an IC50 of 45.7 ± 3.3 µM and a Ki of 22.6 ± 1.6 µM. For the same compound, in data set [2], the IC50 turned out to be 93.8 ± 1.5 µM and the affinity, expressed as Ki, was 46.1 ± 0.8 µM.
Consider `COc1cc(-c2cc(OP(=O)(O)O)cc(-c3ccc(C(C)(C)C)cc3)c2)cc(OC)c1OC` [6 j], for which the IC50 was 66.9 ± 4.9 µM in data set [1] and 51.4 ± 4.9 µM in data set [2]. For the same compound, the results for the inhibitory constant (Ki) in data set [1] and in data set [2] were 33.2 ± 2.4 µM and 25.3 ± 2.4 µM, respectively.

Source of the values: paper PMC9303812, “Asymmetrically Substituted m‐Terphenyl Phosphates Inhibit the Transcription Factor STAT5a” (Chembiochem, 2021).
